# Laboratory results reported in PubChem BioAssay AID1845194 (Molecular Pharmacology Branch, DTP, NCI, 2023).
# Test system: 287954-098-R-J1 tumor spheroid viability
# Assay: Anticancer human tumor 287954-098-R-J1 patient-derived Ewing sarcoma cell line growth inhibition
# Settings: spheroids with HUVEC and MSC; for IC50: curve of first compound; for viability, T/C: stronger effect = lower value
# Outline: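 Complex tumor spheroids combined malignant cells with endothelial cells and mesenchymal stem cells. DNA-damaging drugs and DNA repair inhibitors were tested alone and in combination, at half-log dilutions down from clinical Cmax (top 10 microM if Cmax unknown), 0.25% DMSO final.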
# [1] = second compound 1 µM, first compound 0.0316 µM
# [2] = second compound 1 µM, first compound 0.1 µM
# [3] = second compound 1 µM, first compound 0.316 µM
# [4] = second compound 1 µM, first compound 1 µM
# [5] = second compound 1 µM, first compound 3.16 µM
# [6] = second compound 1 µM, first compound 10 µM
# [7] = second compound 3.16 µM, first compound 0.0316 µM
# [8] = second compound 3.16 µM, first compound 0.1 µM
# [9] = second compound 3.16 µM, first compound 0.316 µM
# [10] = second compound 3.16 µM, first compound 1 µM
# [11] = second compound 3.16 µM, first compound 3.16 µM
# [12] = second compound 3.16 µM, first compound 10 µM
# [13] = second compound 10 µM, first compound 0.0316 µM
# [14] = second compound 10 µM, first compound 0.1 µM
# [15] = second compound 10 µM, first compound 0.316 µM
# [16] = second compound 10 µM, first compound 1 µM
# [17] = second compound 10 µM, first compound 3.16 µM
# [18] = second compound 10 µM, first compound 10 µM
# [19] = second compound 31.6 µM, first compound 0.0316 µM
# [20] = second compound 31.6 µM, first compound 0.1 µM
# [21] = second compound 31.6 µM, first compound 0.316 µM
# [22] = second compound 31.6 µM, first compound 1 µM
# [23] = second compound 31.6 µM, first compound 3.16 µM
# [24] = second compound 31.6 µM, first compound 10 µM
# [25] = second compound 100 µM, first compound 0.0316 µM
# [26] = second compound 100 µM, first compound 0.1 µM
# [27] = second compound 100 µM, first compound 0.316 µM
# [28] = second compound 100 µM, first compound 1 µM
# [29] = second compound 100 µM, first compound 3.16 µM
# [30] = second compound 100 µM, first compound 10 µM
# 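Note: spheroids exposed to compound for 7 days before viability readout.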
# 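Throughout, for viability, T/C: luminescent signal taken as surrogate of viable cell content; 100% = DMSO vehicle control viability and lower means growth inhibition.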
Compound,IC50 (second compound 1 µM) [µM],IC50 (second compound 3.16 µM) [µM],IC50 (second compound 10 µM) [µM],IC50 (second compound 31.6 µM) [µM],IC50 (second compound 100 µM) [µM],"viability, T/C [1] [%]","viability, T/C [2] [%]","viability, T/C [3] [%]","viability, T/C [4] [%]","viability, T/C [5] [%]","viability, T/C [6] [%]","viability, T/C [7] [%]","viability, T/C [8] [%]","viability, T/C [9] [%]","viability, T/C [10] [%]","viability, T/C [11] [%]","viability, T/C [12] [%]","viability, T/C [13] [%]","viability, T/C [14] [%]","viability, T/C [15] [%]",further results
CC1COCCN1c1cc(-c2ccnn2C)c2ccnc(-c3ccn[nH]3)c2n1 (stereo not given) + Cn1nnc2c(C(N)=O)ncn2c1=O,0.171,0.187,0.0963,0.0986,< 0.0316,112,75.2,21,5.68,1.55,2.68,120,91.1,15.7,4.89,1.74,2.56,114,47.9,9.18,"viability, T/C [16]: 5.1%; viability, T/C [17]: 1.63%; viability, T/C [18]: 2.11%; viability, T/C [19]: 110%; viability, T/C [20]: 49.3%; viability, T/C [21]: 8.98%; viability, T/C [22]: 3.51%; viability, T/C [23]: 1.69%; viability, T/C [24]: 2.41%; viability, T/C [25]: 12%; viability, T/C [26]: 4.47%; viability, T/C [27]: 2.32%; viability, T/C [28]: 1.6%; viability, T/C [29]: 1.28%; viability, T/C [30]: 2.24%"
COc1cc(C)[nH]c(=O)c1CN1CCc2c(Cl)cc(C(OC)C3COC3)c(Cl)c2C1=O (stereo not given) + Cn1nnc2c(C(N)=O)ncn2c1=O,> 10,> 10,> 10,> 10,> 10,98,89.7,96.8,93.3,89,90.7,105,100,96.5,91.9,86.9,93.3,102,99.6,90.1,"viability, T/C [16]: 89.6%; viability, T/C [17]: 89.9%; viability, T/C [18]: 93%; viability, T/C [19]: 102%; viability, T/C [20]: 97.4%; viability, T/C [21]: 93.3%; viability, T/C [22]: 89.8%; viability, T/C [23]: 90.7%; viability, T/C [24]: 96.1%; viability, T/C [25]: 95%; viability, T/C [26]: 99.9%; viability, T/C [27]: 87.7%; viability, T/C [28]: 83.9%; viability, T/C [29]: 87%; viability, T/C [30]: 83.5%"
Cc1cc(C)c(CNC(=O)c2cc(-c3ccc(CN4CCOCC4)cc3)cc3c2cnn3C2CCCC2)c(=O)[nH]1 + Cn1nnc2c(C(N)=O)ncn2c1=O,> 10,> 10,> 10,> 10,> 10,104,100,100,103,105,115,105,107,100,108,107,108,110,108,107,"viability, T/C [16]: 106%; viability, T/C [17]: 99.3%; viability, T/C [18]: 111%; viability, T/C [19]: 108%; viability, T/C [20]: 117%; viability, T/C [21]: 109%; viability, T/C [22]: 105%; viability, T/C [23]: 108%; viability, T/C [24]: 105%; viability, T/C [25]: 108%; viability, T/C [26]: 113%; viability, T/C [27]: 111%; viability, T/C [28]: 107%; viability, T/C [29]: 96.2%; viability, T/C [30]: 104%"
[2H]c1nc(C)nc([2H])c1-c1cc(NC[C@@H](C)c2cccc3c(C(=O)NC)ccnc23)ncn1 + Cn1nnc2c(C(N)=O)ncn2c1=O,> 10,> 10,> 10,> 10,> 10,104,103,106,97.6,99.5,101,106,93.9,99.3,106,107,99.3,101,100,99.7,"viability, T/C [16]: 104%; viability, T/C [17]: 103%; viability, T/C [18]: 105%; viability, T/C [19]: 106%; viability, T/C [20]: 103%; viability, T/C [21]: 102%; viability, T/C [22]: 103%; viability, T/C [23]: 98.8%; viability, T/C [24]: 106%; viability, T/C [25]: 99.7%; viability, T/C [26]: 103%; viability, T/C [27]: 97.7%; viability, T/C [28]: 98.2%; viability, T/C [29]: 97.6%; viability, T/C [30]: 94.4%"
